*1 amine or outer side, *2 acyl side, *3 side chain or, on linkers, in order; H or OH if unused. Where a SMILES comes first, the peptide text is derived from it. Side-chain parts run from the residue outwards. [ ]: non-standard residue; d: D form. The star is where a group is joined. C20 diacid = O=C(O)CCCCCCCCCCCCCCCCCCC(=O)*; αMePhe(2-F) = C[C@](N)(Cc1ccccc1F)C(=O)O; γGlu = O=C(O)[C@H](CCC(=O)[*:2])N[*:1]; AEEA = NCCOCCOCC(=O)O; Aib = CC(C)(N)C(=O)O
Molecular target: T1, human GIP-R (Homo sapiens, UniProt P48546)
T1 construct: expressed in transfected cells; host or cells: HEK-293 clonal cell line
T1 sequence (P48546 22-466): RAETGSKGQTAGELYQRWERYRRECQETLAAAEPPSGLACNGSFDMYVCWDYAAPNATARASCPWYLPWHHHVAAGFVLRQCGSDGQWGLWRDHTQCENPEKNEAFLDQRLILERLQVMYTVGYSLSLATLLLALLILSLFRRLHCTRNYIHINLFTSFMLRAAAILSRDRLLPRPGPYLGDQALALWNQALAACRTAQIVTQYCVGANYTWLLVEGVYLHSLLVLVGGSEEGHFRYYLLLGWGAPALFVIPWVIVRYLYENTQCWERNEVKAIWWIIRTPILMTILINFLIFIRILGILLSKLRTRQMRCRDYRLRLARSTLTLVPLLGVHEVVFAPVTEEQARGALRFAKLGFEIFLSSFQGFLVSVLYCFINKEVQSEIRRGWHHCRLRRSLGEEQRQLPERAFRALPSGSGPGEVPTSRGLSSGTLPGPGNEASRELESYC
Experiment: cAMP functional activity in GIP-R-expressing HEK-293 cells, FBS and BSA
Assay type: cell-based
Conditions: in the presence of FBS and BSA; read-out: cAMP EC50, nM (SEM, n) GIPR

| SMILES | EC50 |
| --- | --- |
| CC[C@H](C)[C@H](NC(=O)[C@H](Cc1ccccc1)NC(=O)[C@H](C)NC(=O)C(C)(C)NC(=O)[C@H](CCC(N)=O)NC(=O)[C@H](C)NC(=O)[C@H](CCCCNC(=O)COCCOCCNC(=O)CC[C@H](NC(=O)CCCCCCCCCCCCCCCCCCC(=O)O)C(=O)O)NC(=O)[C@H](CCCCN)NC(=O)[C@H](CC(=O)O)NC(=O)[C@H](CC(C)C)NC(=O)[C@H](CC(C)C)NC(=O)[C@@H](NC(=O)[C@H](CO)NC(=O)[C@H](Cc1ccc(O)cc1)NC(=O)[C@H](CC(=O)O)NC(=O)[C@H](CO)NC(=O)[C@@H](NC(=O)[C@](C)(Cc1ccccc1F)NC(=O)[C@@H](NC(=O)CNC(=O)[C@H](CCC(N)=O)NC(=O)C(C)(C)NC(=O)[C@@H](N)Cc1ccc(O)cc1)[C@@H](C)O)[C@@H](C)O)[C@@H](C)CC)C(=O)N[C@@H](CCC(=O)O)C(=O)N[C@@H](Cc1ccc(O)cc1)C(=O)N[C@@H](CC(C)C)C(=O)N[C@@H](CC(C)C)C(=O)N[C@@H](CCC(=O)O)C(=O)NCC(=O)NCC(=O)N1CCC[C@H]1C(=O)N[C@@H](CO)C(=O)N[C@@H](CO)C(=O)NCC(=O)N[C@@H](C)C(=O)N1CCC[C@H]1C(=O)N1CCC[C@H]1C(=O)N1CCC[C@H]1C(=O)N[C@@H](CO)C(N)=O [Example 4] | 1.37 nM |
| CC[C@H](C)[C@H](NC(=O)[C@H](Cc1ccccc1)NC(=O)[C@H](C)NC(=O)C(C)(C)NC(=O)[C@H](CCC(N)=O)NC(=O)[C@H](C)NC(=O)[C@H](CCCCNC(=O)COCCOCCNC(=O)COCCOCCNC(=O)CC[C@H](NC(=O)CCCCCCCCCCCCCCCCCCC(=O)O)C(=O)O)NC(=O)[C@H](CCCCN)NC(=O)[C@H](CC(=O)O)NC(=O)[C@H](CC(C)C)NC(=O)[C@H](CC(C)C)NC(=O)[C@@H](NC(=O)[C@H](CO)NC(=O)[C@H](Cc1ccc(O)cc1)NC(=O)[C@H](CC(=O)O)NC(=O)[C@H](CO)NC(=O)[C@@H](NC(=O)[C@](C)(Cc1ccccc1F)NC(=O)[C@@H](NC(=O)CNC(=O)[C@H](Cc1c[nH]cn1)NC(=O)C(C)(C)NC(=O)[C@@H](N)Cc1ccc(O)cc1)[C@@H](C)O)[C@@H](C)O)[C@@H](C)CC)C(=O)N[C@@H](CCC(=O)O)C(=O)N[C@@H](Cc1ccc(O)cc1)C(=O)N[C@@H](CC(C)C)C(=O)N[C@@H](CC(C)C)C(=O)N[C@@H](CCC(=O)O)C(=O)NCC(=O)NCC(=O)N1CCC[C@H]1C(=O)N[C@@H](CO)C(=O)N[C@@H](CO)C(=O)NCC(=O)N[C@@H](C)C(=O)N1CCC[C@H]1C(=O)N1CCC[C@H]1C(=O)N1CCC[C@H]1C(=O)N[C@@H](CO)C(N)=O [Example 3] (H-Y[Aib]HGT[αMePhe(2-F)]TSDYSILLDKK([AEEA-AEEA-γGlu-C20 diacid])AQ[Aib]AFIEYLLEGGPSSGAPPPS-NH2) | 1.37 nM |
